Laboratory results published in patent publication US20250235486A1, “Method of Producing Insulin-Producing Cells” (Monash University, priority 2022, published 2025).

Columns and labels:
Format in all cases: cell-based
[1] = tested on: human exocrine (acinar and ductal) cells; assay: qRT-PCR gene expression in human exocrine (acinar and ductal) cells from a non-diabetic donor; details: 48 hours: GSK126 10 μM, CPI-1205 5 μM, ursolic acid 5 μM, GSK343 5 μM, EPZ-6438 5 μM
Description: (§1) Exocrine cells from a non-diabetic human and a marmoset were cultured and assayed in Miami/CMRL medium. The human exocrine cells were sourced from the Islet Transplant Unit of St Vincent's Institute for Medical Research. The marmoset exocrine cells were sourced from the Australian Regenerative Medicine Institute (ARMI), Monash University. Miami media is based on CMRL 1066 media (Connaught Medical Research Lab) supplemented with: Insulin, Transferrin & Selenium (ITS), human serum, Vitamin E, sodium pyruvate, zinc and HEPES. Pharmacological inhibition of EZH2 and gene expression analysis were performed as described in Example 1.

[2] = tested on: marmoset exocrine (acinar and ductal) cells; assay: qRT-PCR gene expression in marmoset exocrine (acinar and ductal) cells; details: 48 hours: GSK126 10 μM, ursolic acid 5 μM
Description: as §1

[3] = tested on: Human pancreatic ductal epithelial cells; assay: Glucose stimulated insulin secretion assay (ELISA)
Description: 5×10^5 cells were seeded in 12-well plates and allowed to adhere for 24 hours. […] Next, cells were cultured in 28 mM (High) glucose Krebs Buffer solution and incubated for 1 hour to obtain the glucose stimulated insulin secretion. Supernatant was collected and Ultrasensitive Insulin ELISA (Mercodia) was used to determine the concentration of insulin according to manufacturer's instructions. Fold change of insulin secreted by cells were calculated by adjusting to cells stimulated with EZH2 inhibitors for insulin concentrations compared to control.

[4] = tested on: human pancreatic exocrine cells; assay: qRT-PCR gene expression in ex vivo pancreatic exocrine cells from non-diabetic and type 1 diabetic donors
Text: Islets were purified by intraductal perfusion and digestion of the pancreases with collagenase AF-1 (SERVA/Nordmark, Germany) (Ricordi C et al. Automated method for isolation of human pancreatic islets. Diabetes 37, 413-420 (1988)), followed by purification using Ficoll density gradients (Barbaro B, et al. Improved human pancreatic islet purification with the refined UIC—UB density gradient. Transplantation 84, 1200-1203 (2007)). Purified islets, from low density gradient fractions, and acinar/ductal tissue, from high density fractions, were cultured in Miami Media 1A (Mediatech/Corning 98-021, USA) supplemented with 2.5% human serum albumin (Australian Red Cross, Melbourne, VIC, Australia), in a 37° C., 5% CO2 incubator.
Total RNA from human ex vivo pancreatic cells was isolated using TRIzol (Invitrogen) and RNeasy Kit (QIAGEN) including a DNase treatment. First-strand cDNA synthesis was performed using a high-capacity cDNA Reverse Transcription Kit (Applied Biosystems) according to the manufacturer's instructions. cDNA primers were designed using oligoperfect designer (Thermo Fisher Scientific), as shown in Table 2 and Table 3. Briefly, quantitative RT-PCR analyses were undertaken using the PrecisionFast 2× qPCR Master Mix (Primerdesign) and primers using Applied Biosystems 7500 Fast Real-Time PCR System. Each qPCR reaction contained: 6.5 μl qPCR Master Mix, 0.5 μl of forward and reverse primers, 3.5 μl H2O and 2 μl of previously synthesised cDNA, diluted 1/20. Expression levels of specific genes were tested and normalised to 18s ribosomal RNA housekeeping gene.
All cell incubations were performed in Miami Media 1A (Mediatech/Corning 98-021, USA) supplemented with 2.5% human serum albumin (Australian Red Cross, Melbourne, VIC, Australia), in a cell culture incubator at 37° C. in an atmosphere of 5% CO2 for 48 hr using non-treated 6 well culture plates (Corning).

[5] = tested on: H3K27me3 content at promoters in human exocrine cells; assay: Chromatin immunoprecipitation (anti-H3K27me3) qPCR in exocrine cells of a non-diabetic donor; details: GSK126 vs DMSO
Description: Chromatin immunoprecipitation assays in human exocrine cells were performed previously described (Rafehi H, et al. Vascular histone deacetylation by pharmacological HDAC inhibition. Genome Res 24, 1271-1284 (2014); Pirola L, et al. Genome-wide analysis distinguishes hyperglycemia regulated epigenetic signatures of primary vascular cells. Genome Res 21, 1601-1615 (2011)). Cells were fixed for 10 minutes with 1% formaldehyde and quenched for 10 mins with glycine (0.125 M) solution. Fixed cells were resuspended in sodium dodecyl (lauryl) sulfate (SDS) lysis buffer (1% SDS, 10 mM EDTA, 50 mM Tris-HCl pH 8.1) including a protease inhibitor cocktail (Roche Diagnostics GmBH, Mannheim, Germany) and homogenized followed by incubation on ice for 5 minutes. […] H3K27me3 content at the promoters of the INS, INS-IGF2, NGN3 and PDX1 genes were assessed by qPCR using primers designed from the integrative ENCODE resource (Zhang J, et al. An integrative ENCODE resource for cancer genomics. Nat Commun 11, 3696 (2020)).
Proteins were cross-linked to DNA and soluble chromatin fractionated by sonication. […] DNA was assessed by qPCR using amplimers specifically designed to detect human Ins chromatin domain genes (FIG. 5a). […]

[6] = tested on: Human immortalised ductal cell line; assay: qRT-PCR gene expression in human immortalised ductal cell line; details: ursolic acid 1, 2.5 or 5 μM; GSK126 5, 10 or 20 μM
Description: Human immortalised ductal cell line (Catalog #: T0018001, Addexbio) was cultured and assayed in Keratinocyte SFM (serum-free medium) (Catalog number 17005042, ThermoFisher Scientific, USA). Pharmacological inhibition of EZH2 and gene expression analysis were performed as described in Example 1.

[7] = 10 mM GSK126 (so in the source), 48 hr
[8] = 10 mM GSK126 (so in the source), 48 hr, non-diabetic and T1D donors

CC[C@H](C)n1cc(C)c2c(C(=O)NCc3c(C)cc(C)[nH]c3=O)cc(-c3ccc(N4CCNCC4)nc3)cc21 [GSK126, N-[(1,2-Dihydro-4,6-dimethyl-2-oxo-3-pyridinyl)methyl]-3-methyl-1-[(1S)-1-methylpropyl]-6-[6-(1-piperazinyl)-3-pyridinyl]-1H-indole-4-carboxamide]
mRNA expression of Insulin, Pdx1 and Ngn3 [1]: stimulated expression of one, two or all of Insulin, Pdx1 and Ngn3
Insulin mRNA expression [2]: stimulated expression
Pdx1 mRNA expression [2]: stimulated expression
insulin concentration after incubation in high-glucose media (28 mM glucose, 1 hour) ([3]; 2-day stimulation (FIG. 13d), GSK126 10 μM, EPZ6438 1 μM, Triptolide 20 nM, not observed in DMSO control): significant elevations
Release of insulin (glucose stimulated) ([3]; 7 days stimulation (FIG. 13e)): maintained
Amy2A (acinar marker) expression [4, 7]: did not significantly alter
Ck19 (ductal marker) expression [4, 7]: did not significantly alter
Ki67 (proliferative marker) expression [4, 7]: increased
Txnip (glucose-sensor) expression [4, 7]: did not significantly alter
Ins gene expression [4, 8]: significant expression
Ngn3 mRNA expression [4, 8]: restored
Pdx1 mRNA expression [4, 8]: restored
Sox9 mRNA expression [4, 8]: restored
MafA gene expression ([4]; ex vivo exocrine cells, GSK126): restored
Nkx6.1 gene expression ([4]; ex vivo exocrine cells, GSK126): restored
Sox11 gene expression ([4]; ex vivo exocrine cells, GSK126): restored
H3K27me3 content at the Ins and Igf2AS promoter (R1-R3) regions ([5]; non-diabetic donor (2)): Significant reduction
H3K27me3 content on the Ngn3 promoter R1 ([5]; non-diabetic exocrine cells): marginally affected
Insulin mRNA expression [6]: stimulated expression
Ngn3 mRNA expression [6]: stimulated expression
Pdx1 mRNA expression [6]: stimulated expression
